Laboratory results: ChEMBL document CHEMBL1782033, “Dimeric prenylated C6-C3 compounds from the stem bark of Illicium oligandrum” (2011)

Test: Antiinflammatory activity in rat Polymorphonuclear leukocytes assessed as inhibition of platelet-activating factor-induced beta-glucuronidase release at 10 uM
Format: functional

| SMILES | inhibition at 10 µM |
| --- | --- |
| C[C@@H]1C(=O)O[C@H]2[C@H](O)[C@@]34[C@H]5C[C@@H](C(C)(C)C)[C@]36[C@@H](OC(=O)[C@@H]6O)O[C@@]4(C(=O)O5)[C@@]12O [GINKOLIDE B] | 83.5% |
| C=CC[C@]1(O)C(=O)C=C2O[C@H](C(C)(C)O)C[C@@]23[C@@H]2C(=O)[C@@](O)(CC=C)[C@@H](C4=C2OC(C)(C)[C@H](O)C4)[C@H]31 [ILLICIDIONE A] | 38.2% |
| C=CCC1=C[C@]2(O)C[C@H](C(C)(C)O)OC2=C(CC2=C3O[C@@H](C(C)(C)O)C[C@@]3(O)C=C(CC=C)C2=O)C1=O [ILLICIDIONE B] | 18.6% |
| C=CC[C@H]1C[C@]2(O)C[C@H](C(C)(C)O)OC2=C(CC2=C3O[C@@H](C(C)(C)O)C[C@@]3(O)C[C@H](CC=C)C2=O)C1=O [ILLICIDIONE C] | 25.3% |
